Laboratory results from ChEMBL document CHEMBL4483862, “Open-source discovery of chemical leads for next-generation chemoprotective antimalarials” (2018).
pIC50: −log10 of the molar value.

Tested on: Plasmodium berghei
Test: Luciferase/luciferin-expressing antifolate-resistant parasites were used to infect a culture of HepG2 cells that were pre-incubated with compounds. Infected hepatocytes emit light due to the luciferase reaction. Assay results are presented as the percent inhibition of light emission compared to control. […]
Assay type: functional
Conditions: sporozoite; for IC90: read-out: LUCIFERASE INFECTION ASSAY - IC90
[1] = read-out: LUCIFERASE INFECTION ASSAY - IC50

SMILES: O=C(Nc1ccc(Cl)c(Cl)c1)Nc1ccc(Cl)c(Cl)c1
- pIC50 (HEPG2TOX_HILL_SLOPE 2.86, HEPG2TOX_R_SQUARED 0.877, PBLUC_HILL_SLOPE 1.38, PBLUC_R_SQUARED 0.733, read-out: LUCIFERASE INFECTION ASSAY - IC50): 6.56
- IC90: 1.35 µM

SMILES: N#CC1(c2ccccc2)C/C(=C\c2cccnc2)C(=O)/C(=C/c2cccnc2)C1 (configuration not stated)
- pIC50 (HEPG2TOX_HILL_SLOPE 15.6, HEPG2TOX_R_SQUARED 0.458, PBLUC_HILL_SLOPE 155, PBLUC_R_SQUARED 0.194, read-out: LUCIFERASE INFECTION ASSAY - IC50): 5.32
- IC90: 4.83 µM

SMILES: COc1ccc(/C=C2\CCCc3c2nc2ccccc2c3C(=O)OCc2cccc(C(F)(F)F)c2)cc1OC
- pIC50 [1]: < 5.00
- IC90: > 10 µM

SMILES: CCOc1ccc(C=C(c2nc3ccccc3s2)c2nc3ccccc3s2)c(O)c1
- pIC50 [1]: 5.17
- IC90: > 10 µM

SMILES: CC(C)(C)c1ccc(C(=O)Nc2ccc(Oc3ccc(Cl)cc3)cc2)cc1
- pIC50 [1]: < 5.06
- IC90: > 8.69 µM

SMILES: Cc1cc(Cl)cc(/C=N/NC(=S)NC(C)(C)C)c1O
- pIC50 [1]: 5.44
- IC90: 3.97 µM

SMILES: O=C1C=C(Nc2ccccc2)/C(=N\c2ccccc2)c2c1oc1ccc(Nc3ccccc3)cc21
- pIC50 (FFLUC_HILL_SLOPE 1.75, FFLUC_R_SQUARED 0.754, HEPG2TOX_HILL_SLOPE 1.61, HEPG2TOX_R_SQUARED 0.885, read-out: LUCIFERASE INFECTION ASSAY - IC50): < 5.00
- IC90: > 10 µM

SMILES: Cc1cc2c(cc1C)C(NCCc1ccccc1)=NC(C)(C)C2
- pIC50 (HEPG2TOX_HILL_SLOPE 5.51, HEPG2TOX_R_SQUARED 0.604, PBLUC_HILL_SLOPE 9.09, PBLUC_R_SQUARED 0.396, read-out: LUCIFERASE INFECTION ASSAY - IC50): 5.40
- IC90: 5.1 µM

SMILES: Cc1cc(N2CCN(c3cnn(-c4nc5ccccc5[nH]4)c(=O)c3Cl)CC2)nc(C(C)C)n1
- pIC50 (HEPG2TOX_HILL_SLOPE 0.0256, HEPG2TOX_R_SQUARED 0.0179, PBLUC_HILL_SLOPE 3.18, PBLUC_R_SQUARED 0.351, read-out: LUCIFERASE INFECTION ASSAY - IC50): 5.43
- IC90: 7.33 µM

SMILES: COc1cc(OC)cc(-c2cn3c(-c4ccc5ncccc5c4)cnc3cn2)c1
- pIC50 (HEPG2TOX_HILL_SLOPE 2.4, HEPG2TOX_R_SQUARED 0.938, PBLUC_HILL_SLOPE 4.1, PBLUC_R_SQUARED 0.34, read-out: LUCIFERASE INFECTION ASSAY - IC50): 5.44
- IC90: 6.15 µM

SMILES: COc1cncc(-c2cncc(Nc3cccc(Cl)c3)c2)c1
- pIC50 (PBLUC_HILL_SLOPE 20.7, PBLUC_R_SQUARED 0.436, read-out: LUCIFERASE INFECTION ASSAY - IC50): 5.05
- IC90: 9.85 µM

SMILES: COc1ccc(-n2ccnc2SCc2nc(N)c3ccccc3n2)cc1
- pIC50 [1]: < 5.00
- IC90: > 10 µM

SMILES: Cc1cccc(C)c1/N=c1\scc(-c2cccc(Cl)c2)n1/N=C/C1CC=CCC1 (configuration not stated)
- pIC50 [1]: < 5.00
- IC90: > 10 µM

SMILES: OCc1ccc(-c2cnc3ccc(-c4cccc(C(F)(F)F)c4)nn23)cc1
- pIC50 [1]: < 5.00
- IC90: > 10 µM

SMILES: COc1ccccc1C(=O)OC(c1ccc(NC(=O)c2ccc(OC(F)F)cc2)cc1)(C(F)(F)F)C(F)(F)F
- pIC50 [1]: 5.45
- IC90: 4.33 µM

SMILES: CN(C)C(=O)c1ccc(Nc2cc3c(cn2)nc(-c2ccco2)n3C)cc1
- pIC50 [1]: < 5.00
- IC90: > 10 µM

SMILES: O=C(NNC(=S)Nc1cccc(C(F)(F)F)c1)c1[nH]c2ccccc2c1-c1ccccc1
- pIC50 (HEPG2TOX_HILL_SLOPE 2.69, HEPG2TOX_R_SQUARED 0.963, PBLUC_HILL_SLOPE 11.7, PBLUC_R_SQUARED 0.673, read-out: LUCIFERASE INFECTION ASSAY - IC50): 5.64
- IC90: 2.73 µM

SMILES: c1cncc(-c2cnc3sc(NCc4ccncc4)nn23)c1
- pIC50 (PBLUC_HILL_SLOPE 12.5, PBLUC_R_SQUARED 0.401, read-out: LUCIFERASE INFECTION ASSAY - IC50): 5.00
- IC90: > 10.7 µM

SMILES: N=C(N)SCc1csc(-c2ccc(Br)cc2)n1
- pIC50 [1]: < 5.04
- IC90: > 9.05 µM

SMILES: Cc1ccc(C(C)C)c(OCC(=O)Nc2ccc(I)c(C)n2)c1
- pIC50 (FFLUC_HILL_SLOPE 2.58, FFLUC_R_SQUARED 0.455, read-out: LUCIFERASE INFECTION ASSAY - IC50): < 5.00
- IC90: > 10 µM

SMILES: Cc1nn(-c2ccc(C(F)(F)F)cn2)c2ncc(CCCO)cc12
- pIC50 (HEPG2TOX_HILL_SLOPE 0.869, HEPG2TOX_R_SQUARED 0.0884, read-out: LUCIFERASE INFECTION ASSAY - IC50): < 5.00
- IC90: > 10 µM

SMILES: Cc1cc(=O)n(-c2ccc(C(F)(F)F)cc2[N+](=O)[O-])[nH]1
- pIC50 [1]: < 5.00
- IC90: > 10 µM

SMILES: Cc1cc(C(C)(C)C)cc(C)c1CCNC(=O)C1CCN(c2cnccn2)CC1
- pIC50 (HEPG2TOX_HILL_SLOPE 9.49, HEPG2TOX_R_SQUARED 0.929, PBLUC_HILL_SLOPE 9.04, PBLUC_R_SQUARED 0.464, read-out: LUCIFERASE INFECTION ASSAY - IC50): 5.05
- IC90: > 10 µM

SMILES: Cc1cc(=O)n2nc(CSc3nc4ccccc4c(=O)n3C3CCCC3)sc2n1
- pIC50 [1]: < 5.00
- IC90: > 10 µM

SMILES: CSc1sc(Cl)c2c1/C(=N\O)CC(C)(C)C2
- pIC50 [1]: < 4.92
- IC90: > 12 µM

SMILES: COc1cc(Cl)c(C)cc1-n1c(Sc2ccc([N+](=O)[O-])c(C(F)(F)F)c2)nc2ccccc2c1=O
- pIC50 (FFLUC_HILL_SLOPE 1.25, FFLUC_R_SQUARED 0.54, HEPG2TOX_HILL_SLOPE 0.668, HEPG2TOX_R_SQUARED 0.6, PBLUC_HILL_SLOPE 3.18, PBLUC_R_SQUARED 0.355, read-out: LUCIFERASE INFECTION ASSAY - IC50): 5.20
- IC90: > 10 µM

SMILES: O=C(Nc1ccc(Oc2ccccc2)cc1)c1noc(-c2ccccc2)n1
- pIC50 (PBLUC_HILL_SLOPE 3.74, PBLUC_R_SQUARED 0.217, read-out: LUCIFERASE INFECTION ASSAY - IC50): 5.44
- IC90: 6.61 µM

SMILES: O=C(N/N=C/c1cc(Br)ccc1O)c1ccccc1Oc1ccccc1
- pIC50 (HEPG2TOX_HILL_SLOPE 3.72, HEPG2TOX_R_SQUARED 0.537, PBLUC_HILL_SLOPE 21.6, PBLUC_R_SQUARED 0.145, read-out: LUCIFERASE INFECTION ASSAY - IC50): 5.16
- IC90: 7.69 µM

SMILES: Cc1cc(C)cc(NC(=S)NCCCCN2CCN(c3cccc(Cl)c3)CC2)c1
- pIC50 (PBLUC_HILL_SLOPE 3.55, PBLUC_R_SQUARED 0.0766, read-out: LUCIFERASE INFECTION ASSAY - IC50): 5.12
- IC90: > 7.66 µM

SMILES: CCOc1ccc(OCCC(=O)NCc2cccc(C(F)(F)F)c2)cc1
- pIC50 [1]: < 5.00
- IC90: > 10 µM

SMILES: N#Cc1ccc(COC(=O)c2ccc(O)cc2)cc1
- pIC50 [1]: < 5.00
- IC90: > 10 µM

SMILES: CCOC(=O)c1c(C)[nH]c(C(=O)COC(=O)c2ccc(CO)cc2)c1C
- pIC50 [1]: < 5.00
- IC90: > 10 µM

SMILES: CC12CCC(CC1=NNc1nc3ccccc3o1)C2(C)C (configuration not stated)
- pIC50 (PBLUC_HILL_SLOPE 0.724, PBLUC_R_SQUARED 0.679, read-out: LUCIFERASE INFECTION ASSAY - IC50): 5.36
- IC90: > 10 µM

SMILES: O=C(Cn1ncc(Cl)c(Cl)c1=O)Nc1cccc(Oc2ccccc2)c1
- pIC50 (FFLUC_HILL_SLOPE 8.65, FFLUC_R_SQUARED 0.47, PBLUC_HILL_SLOPE 2.15, PBLUC_R_SQUARED 0.511, read-out: LUCIFERASE INFECTION ASSAY - IC50): 5.17
- IC90: > 10 µM

SMILES: CC(=O)NC12CC3CC(C1)CC(C(=O)Nc1ccc4c(c1)-c1ccccc1C4)(C3)C2
- pIC50 (PBLUC_HILL_SLOPE 1.58, PBLUC_R_SQUARED 0.82, read-out: LUCIFERASE INFECTION ASSAY - IC50): 5.87
- IC90: 5.37 µM

SMILES: Cc1cc(C(=O)COc2ccc(-c3nnco3)cc2)c(C)n1-c1ccc(F)cc1
- pIC50 [1]: 5.08
- IC90: > 10 µM

SMILES: O=C1NC(c2c(-c3ccccc3)[nH]c3ccccc23)Nc2ccccc21 (configuration not stated)
- pIC50 (HEPG2TOX_HILL_SLOPE 1.35, HEPG2TOX_R_SQUARED 0.878, PBLUC_HILL_SLOPE 2.2, PBLUC_R_SQUARED 0.804, read-out: LUCIFERASE INFECTION ASSAY - IC50): 6.35
- IC90: 1.21 µM

SMILES: COc1ccc2c(c1)C(=O)/C(=C\c1ccc(OCc3nccn3C)cc1)CO2
- pIC50 (PBLUC_HILL_SLOPE 10.1, PBLUC_R_SQUARED 0.104, read-out: LUCIFERASE INFECTION ASSAY - IC50): 5.07
- IC90: > 10 µM

SMILES: C/N=c1\scc(-c2cc3ccccc3o2)n1/N=C/c1cccc(O)c1O
- pIC50 [1]: < 5.00
- IC90: > 10 µM

SMILES: Cc1nn2c(=O)cc(C(C)C)[nH]c2c1-c1ccccc1
- pIC50 (PBLUC_HILL_SLOPE 3.42, PBLUC_R_SQUARED 0.611, read-out: LUCIFERASE INFECTION ASSAY - IC50): 5.26
- IC90: 10.5 µM

SMILES: COC(=O)c1ccc(/C=C2\Oc3cc(O)cc(C)c3C2=O)cc1
- pIC50 (FFLUC_HILL_SLOPE 2.39, FFLUC_R_SQUARED 0.815, read-out: LUCIFERASE INFECTION ASSAY - IC50): < 4.97
- IC90: > 10.6 µM

SMILES: CC(C)(C)c1cc(-c2csc(CS(=O)(=O)Cc3cccc(C(F)(F)F)c3)n2)cc(C(C)(C)C)c1O
- pIC50 (FFLUC_HILL_SLOPE 261, FFLUC_R_SQUARED 0.0541, PBLUC_HILL_SLOPE 0.448, PBLUC_R_SQUARED 0.195, read-out: LUCIFERASE INFECTION ASSAY - IC50): < 5.20
- IC90: > 6.28 µM

SMILES: O=C(Nc1ccc(F)cc1F)c1cc(Br)ccc1O
- pIC50 (HEPG2TOX_HILL_SLOPE 11.9, HEPG2TOX_R_SQUARED 0.641, PBLUC_HILL_SLOPE 14.3, PBLUC_R_SQUARED 0.252, read-out: LUCIFERASE INFECTION ASSAY - IC50): 5.08
- IC90: 9.77 µM

SMILES: CCCCNC1=C(NS(=O)(=O)c2ccc(NC(C)=O)cc2)C(=O)c2ccccc2C1=O
- pIC50 (PBLUC_HILL_SLOPE 2.17, PBLUC_R_SQUARED 0.634, read-out: LUCIFERASE INFECTION ASSAY - IC50): 5.44
- IC90: > 10 µM

SMILES: CC(C)[C@H](NC(=O)c1ccc(C(C)(C)C)cc1)C(=O)Nc1nc2ccccc2[nH]1
- pIC50 [1]: < 5.00
- IC90: > 10 µM

SMILES: COc1ccccc1NCC(=O)N/N=C/c1cc(C)c2cc(C(C)C)ccc(C)c1-2
- pIC50 [1]: < 5.00
- IC90: > 10 µM
